Source: ChEMBL document CHEMBL2412960, “Inhibition of Mycobacterium tuberculosis strains H37Rv and MDR MS-115 by a new set of C5 modified pyrimidine nucleosides” (Bioorg Med Chem, 2013)
In brackets after ≈: the same amount, converted by molar mass. Activity calls are given as the source filed them. The calls are words filed in the database; no cut-off is given here.

Tests used:
[1] = test system: Mycobacterium tuberculosis; assay: Bacteriostatic activity against Mycobacterium tuberculosis H37Rv assessed as growth inhibition; type: functional
[2] = test system: Mycobacterium tuberculosis; assay: Bacteriostatic activity against Mycobacterium tuberculosis H37Rv assessed as growth inhibition at 5 ug/mL relative to control; type: functional; settings: read-out: GI
[3] = test system: Mycobacterium tuberculosis; assay: Bacteriostatic activity against Mycobacterium tuberculosis H37Rv assessed as growth inhibition at 10 ug/mL relative to control; type: functional; settings: read-out: GI
[4] = test system: Mycobacterium tuberculosis; assay: Bacteriostatic activity against Mycobacterium tuberculosis H37Rv assessed as growth inhibition at 20 ug/mL relative to control; type: functional; settings: read-out: GI
[5] = Cytotoxicity against human A549 cells after 72 hrs by MTT assay; type: cell-based; settings: read-out: CD50
[6] = Cytotoxicity against human Jurkat cells after 72 hrs by MTT assay; type: cell-based; settings: read-out: CD50
[7] = Cytotoxicity against African green monkey Vero cells after 72 hrs by MTT assay; type: cell-based; settings: chlorocebus sabaeus, read-out: CD50
[8] = test system: Mycobacterium tuberculosis; assay: Bacteriostatic activity against Mycobacterium tuberculosis H37Rv assessed as growth inhibition at 1 ug/mL relative to control; type: functional; settings: read-out: GI
[9] = test system: Mycobacterium tuberculosis; assay: Bacteriostatic activity against Mycobacterium tuberculosis H37Rv assessed as growth inhibition at 50 ug/mL relative to control; type: functional; settings: read-out: GI
[10] = test system: Mycobacterium tuberculosis; assay: Bacteriostatic activity against Mycobacterium tuberculosis H37Rv assessed as growth inhibition at 200 ug/mL relative to control; type: functional; settings: read-out: GI
[11] = test system: Mycobacterium tuberculosis; assay: Bacteriostatic activity against Mycobacterium tuberculosis H37Rv assessed as growth inhibition at 100 ug/mL relative to control; type: functional; settings: read-out: GI
Saccharomyces cerevisiae = assay: Antifungal activity against Saccharomyces cerevisiae RIA 259; type: functional, organism-based
Aspergillus niger = assay: Antifungal activity against Aspergillus niger INA 00760; type: functional, organism-based
Pseudomonas aeruginosa = assay: Antibacterial activity against Pseudomonas aeruginosa ATCC 27853; type: functional, organism-based
Escherichia coli = assay: Antibacterial activity against Escherichia coli ATCC 25922; type: functional, organism-based
Staphylococcus aureus [12] = assay: Antibacterial activity against methicillin-resistant Staphylococcus aureus INA 00761; type: functional, organism-based
[13] = test system: Leuconostoc mesenteroides; assay: Antibacterial activity against vancomycin-resistant Leuconostoc mesenteroides VKPM B-4177; type: functional
Staphylococcus aureus [14] = assay: Antibacterial activity against methicillin-susceptible Staphylococcus aureus FDA 209P; type: functional, organism-based
Micrococcus luteus = assay: Antibacterial activity against Micrococcus luteus NCTC 8340; type: functional, organism-based
Bacillus mycoides = assay: Antibacterial activity against Bacillus mycoides 537; type: functional, organism-based
Bacillus pumilus = assay: Antibacterial activity against Bacillus pumilus NCTC 8241; type: functional, organism-based
Bacillus subtilis = assay: Antibacterial activity against Bacillus subtilis ATCC 6633; type: functional, organism-based
[15] = test system: Mycobacterium tuberculosis; assay: Bacteriostatic activity against Mycobacterium tuberculosis H37Rv assessed as growth inhibition at 40 ug/mL relative to control; type: functional; settings: read-out: GI
[16] = test system: Leuconostoc mesenteroides; assay: Antibacterial activity against vancomycin-resistant Leuconostoc mesenteroides VKPM B-4177 at 95 ug/mL; type: functional

Row | SMILES | MIC99 [1] [µg/mL] | inhibition of growth at 5 µg/mL [2] [%] | inhibition of growth at 10 µg/mL [3] [%] | inhibition of growth at 20 µg/mL [4] [%] | CC50 at 72 h [5] [µg/mL] | CC50 at 72 h [6] [µg/mL] | CC50 at 72 h [7] [µg/mL] | inhibition of growth at 50 µg/mL [9] [%] | Activity (Saccharomyces cerevisiae) | Activity (Aspergillus niger) | Activity (Pseudomonas aeruginosa) | Activity (Escherichia coli) | Activity (Staphylococcus aureus [12]) | Activity [13] | Activity (Staphylococcus aureus [14]) | Activity (Micrococcus luteus) | Activity (Bacillus mycoides) | Activity (Bacillus pumilus) | Activity (Bacillus subtilis) | other results
1 | CCCCCCCCCCCCc1cn(Cc2cn([C@H]3C[C@H](O)[C@@H](CO)O3)c(=O)nc2N)nn1 | 10 (≈ 21 µM) | 75 | 99 | 100 | 100 (≈ 210 µM) | 100 (≈ 210 µM) | > 100 |  |  |  |  |  |  |  |  |  |  |  |  | 
2 | CO[C@H]1/C=C/O[C@@]2(C)Oc3c(C)c(O)c4c(O)c(c(/C=N/N5CCN(C)CC5)c(O)c4c3C2=O)NC(=O)/C(C)=C\C=C\[C@H](C)[C@H](O)[C@@H](C)[C@@H](O)[C@@H](C)[C@H](OC(C)=O)[C@@H]1C [RIFAMPIN] | 1 (≈ 1.22 µM) |  |  |  |  |  | > 500 |  |  |  |  |  |  |  |  |  |  |  |  | inhibition of growth at 1 µg/mL [8]: 100%
3 | CCCCCCCCCCCCOCc1cn([C@H]2C[C@H](O)[C@@H](CI)O2)c(=O)[nH]c1=O | 10 (≈ 18.6 µM) | 90 | 100 | 100 | > 100 | > 100 | 70 (≈ 130 µM) | 100 |  |  |  |  |  |  |  |  |  |  |  | 
4 | CCCCCCCCCCCCCCOCc1cn([C@H]2C[C@H](O)[C@@H](CO)O2)c(=O)[nH]c1=O | 200 (≈ 440 µM) |  |  |  |  |  | > 100 |  |  |  |  |  |  |  |  |  |  |  |  | inhibition of growth at 200 µg/mL [10]: 100%
5 | CCCCCCCCCCCCOCc1cn([C@H]2C[C@H](O)[C@@H](CN)O2)c(=O)[nH]c1=O | 20 (≈ 47 µM) |  | 50 | 100 | 8 (≈ 18.8 µM) | 7 (≈ 16.4 µM) | 14 (≈ 32.9 µM) | 100 |  |  |  |  |  |  |  |  |  |  |  | inhibition of growth at 100 µg/mL [11]: 100%
6 | CCCCCCCCCCCCOCc1cn([C@H]2C[C@H](O)[C@@H](CO)O2)c(=O)nc1N | 200 (≈ 470 µM) |  |  |  | 45 (≈ 106 µM) | 37 (≈ 86.9 µM) | > 100 |  |  |  |  |  |  |  |  |  |  |  |  | inhibition of growth at 200 µg/mL [10]: 100%
7 | CCCCCCCCCCCCOCc1cn([C@H]2C[C@H](N(CC)CC)[C@@H](CO)O2)c(=O)[nH]c1=O | 20 (≈ 41.5 µM) |  | 75 | 99 | 5 (≈ 10.4 µM) | 5 (≈ 10.4 µM) | 7.5 (≈ 15.6 µM) | 100 |  |  |  |  |  |  |  |  |  |  |  | inhibition of growth at 100 µg/mL [11]: 100%
8 | CCCCCCCCCCCCOCc1cn([C@H]2C[C@H](O)[C@@H](CN=[N+]=[N-])O2)c(=O)[nH]c1=O | 10 (≈ 22.1 µM) | 75 | 99 | 100 | 20 (≈ 44.3 µM) | 18 (≈ 39.9 µM) | > 100 | 100 |  |  |  |  |  |  |  |  |  |  |  | inhibition of growth at 100 µg/mL [11]: 100%
9 | CCCCCCCCCCCCOCc1cn([C@H]2C[C@H](N=[N+]=[N-])[C@@H](CO)O2)c(=O)[nH]c1=O | 200 (≈ 443 µM) |  |  |  | 10 (≈ 22.1 µM) | 8 (≈ 17.7 µM) | 15 (≈ 33.2 µM) |  |  |  |  |  |  |  |  |  |  |  |  | inhibition of growth at 200 µg/mL [10]: 100%
10 | CCCCCCCCCCCOCc1cn([C@H]2C[C@H](O)[C@@H](CO)O2)c(=O)[nH]c1=O | 20 (≈ 48.5 µM) |  |  | 99 | 90 (≈ 218 µM) | 70 (≈ 170 µM) | > 100 |  | inactive | inactive | inactive | inactive | inactive | inactive | inactive | inactive | inactive | inactive | inactive | inhibition of growth at 40 µg/mL [15]: 100%
11 | CCCCCCCCCCCCOCc1cn([C@H]2C[C@H](O)[C@@H](CO)O2)c(=O)[nH]c1=O | 20 (≈ 46.9 µM) | 25 | 90 | 100 | 100 (≈ 234 µM) | 100 (≈ 234 µM) | > 100 | 100 | inactive | inactive | inactive | inactive | inactive | inactive | inactive | inactive | inactive | inactive | inactive | inhibition of growth at 100 µg/mL [11]: 100%
12 | CCCCCCCCCCCCc1cn(Cc2cn([C@H]3C[C@H](O)[C@@H](CO)O3)c(=O)[nH]c2=O)nn1 | 10 (≈ 20.9 µM) | 90 | 99 | 99 | > 100 | > 100 | > 100 |  | inactive | inactive | inactive | inactive | inactive | inactive | inactive | inactive | inactive | inactive | inactive | inhibition of growth at 40 µg/mL [15]: 100%
13 | CCCCCCCCc1cn(Cc2cn([C@H]3C[C@H](O)[C@@H](CO)O3)c(=O)[nH]c2=O)nn1 | 20 (≈ 47.4 µM) |  | 90 | 99 | > 100 | > 100 | > 100 |  | inactive | inactive | inactive | inactive | inactive | inactive | inactive | inactive | inactive | inactive | inactive | inhibition of growth at 40 µg/mL [15]: 100%
14 | CCCCCCCCCCCCOCc1cn([C@H]2C[C@H](NCC)[C@@H](CO)O2)c(=O)[nH]c1=O | 10 (≈ 22 µM) | 75 | 99 | 100 | 5 (≈ 11 µM) | 5 (≈ 11 µM) | 13 (≈ 28.7 µM) | 100 |  |  |  |  |  |  |  |  |  |  |  | inhibition of growth at 100 µg/mL [11]: 100%
15 | CCCCCCCCCCCCOCc1cn([C@@H]2C[C@H](O)[C@@H](CO)O2)c(=O)[nH]c1=O | 20 (≈ 46.9 µM) |  | 90 | 99 | 45 (≈ 105 µM) | 40 (≈ 93.8 µM) | > 100 | 100 | inactive | inactive | inactive | inactive | inactive | inactive | inactive | inactive | inactive | inactive | inactive | Activity [16]: Active; inhibition of growth at 100 µg/mL [11]: 100%
16 | CCCCCCCCc1cn(Cc2cn([C@H]3C[C@H](O)[C@@H](CO)O3)c(=O)nc2N)nn1 | 40 (≈ 95.1 µM) |  |  | 90 | > 100 | > 100 | > 100 |  |  |  |  |  |  |  |  |  |  |  |  | inhibition of growth at 40 µg/mL [15]: 100%
17 | CCCCCCCCCCOCc1cn([C@H]2C[C@H](O)[C@@H](CO)O2)c(=O)[nH]c1=O | 40 (≈ 100 µM) |  |  |  |  |  | > 100 |  | inactive | inactive | inactive | inactive | inactive | inactive | inactive | inactive | inactive | inactive | inactive | inhibition of growth at 40 µg/mL [15]: 99%
18 | CCCCCCCCCCCCOCc1cn([C@H]2C[C@H](N)[C@@H](CO)O2)c(=O)[nH]c1=O | > 20 |  | 25 | 90 | 8 (≈ 18.8 µM) | 7 (≈ 16.4 µM) | 50 (≈ 117 µM) |  |  |  |  |  |  |  |  |  |  |  |  | 
19 | CC1COc2c(N3CCN(C)CC3)c(F)cc3c(=O)c(C(=O)O)cn1c23 (stereo not given) [OFLOXACIN] | 2 (≈ 5.53 µM) |  |  |  |  |  |  |  |  |  |  |  |  |  |  |  |  |  |  | 
20 | CCCCCCCCCCc1cn(Cc2cn([C@H]3C[C@H](O)[C@@H](CO)O3)c(=O)[nH]c2=O)nn1 | 10 (≈ 22.2 µM) | 90 | 100 |  | 100 (≈ 222 µM) | 100 (≈ 222 µM) | > 100 |  | inactive | inactive | inactive | inactive | inactive | inactive | inactive | inactive | inactive | inactive | inactive | 
21 | CCCCCCCCCCc1cn(Cc2cn([C@H]3C[C@H](O)[C@@H](CO)O3)c(=O)nc2N)nn1 | 40 (≈ 89.2 µM) |  |  | 90 | 100 (≈ 223 µM) | 100 (≈ 223 µM) | > 100 |  |  |  |  |  |  |  |  |  |  |  |  | inhibition of growth at 40 µg/mL [15]: 100%
22 | NNC(=O)c1ccncc1 [ISONIAZID] | 0.1 (≈ 0.729 µM) |  |  |  |  |  |  |  |  |  |  |  |  |  |  |  |  |  |  | 
